From PMC13110364, “Design, Synthesis, and Biological Evaluation of Novel Triazine‐Based Dual Histone Deacetylase/phosphatidylinositol 3‐kinase Inhibitors for Breast Cancer Therapy” (Chemmedchem, 2026)

Legend:
HDAC3 = HDAC3 (Homo sapiens, UniProt O15379); assay: Selectivity profile, single dose 0.5 µM, HDAC3; assay type: biochemical; conditions: remaining enzyme activity; single‐dose duplicate mode at 0.5 μM; read-out: Enzyme % activity (relative to DMSO controls) at 0.5 µM, HDAC3
Description: (§1) The inhibitory profiles of 5b and 5f were evaluated against selected HDAC isoforms (HDAC1, HDAC3, HDAC4, HDAC8, and HDAC10) and PI3K isoforms (PI3Kδ, PI3Kγ, and PI3Kβ) at a fixed concentration of 0.5 µM (Table 3). […] While we explored the phenyl ring in the linker region to achieve selectivity for the HDAC6 isoform, we still observed HDAC class I inhibition. […] It is important to highlight that PI3Kδ is mainly expressed in hematopoietic system and plays roles in leukocyte signaling, T‐cell activation, and immune cell trafficking. FDA‐approved drug idelalisib is a selective PI3Kδ inhibitor in B‐cell malignancies; however, this drug is also related to disruption of the immune system, which can lead to immune manifestations, such as infections. In addition, while isoform‐selective PI3K inhibitors are well tolerated, pan‐inhibition of PI3K is less expected that compensatory mechanisms by the action of other PI3Ks can take place. Thus, a more balanced profile of PI3K inhibition can lead to an overall lack of toxicity of PI3K inhibitors.

HDAC4 = HDAC4 (Homo sapiens, UniProt P56524); assay: Selectivity profile, single dose 0.5 µM, HDAC4; assay type: biochemical; conditions: remaining enzyme activity; single‐dose duplicate mode at 0.5 μM; read-out: Enzyme % activity (relative to DMSO controls) at 0.5 µM, HDAC4
HDAC4, sequence (P56524 whole entry): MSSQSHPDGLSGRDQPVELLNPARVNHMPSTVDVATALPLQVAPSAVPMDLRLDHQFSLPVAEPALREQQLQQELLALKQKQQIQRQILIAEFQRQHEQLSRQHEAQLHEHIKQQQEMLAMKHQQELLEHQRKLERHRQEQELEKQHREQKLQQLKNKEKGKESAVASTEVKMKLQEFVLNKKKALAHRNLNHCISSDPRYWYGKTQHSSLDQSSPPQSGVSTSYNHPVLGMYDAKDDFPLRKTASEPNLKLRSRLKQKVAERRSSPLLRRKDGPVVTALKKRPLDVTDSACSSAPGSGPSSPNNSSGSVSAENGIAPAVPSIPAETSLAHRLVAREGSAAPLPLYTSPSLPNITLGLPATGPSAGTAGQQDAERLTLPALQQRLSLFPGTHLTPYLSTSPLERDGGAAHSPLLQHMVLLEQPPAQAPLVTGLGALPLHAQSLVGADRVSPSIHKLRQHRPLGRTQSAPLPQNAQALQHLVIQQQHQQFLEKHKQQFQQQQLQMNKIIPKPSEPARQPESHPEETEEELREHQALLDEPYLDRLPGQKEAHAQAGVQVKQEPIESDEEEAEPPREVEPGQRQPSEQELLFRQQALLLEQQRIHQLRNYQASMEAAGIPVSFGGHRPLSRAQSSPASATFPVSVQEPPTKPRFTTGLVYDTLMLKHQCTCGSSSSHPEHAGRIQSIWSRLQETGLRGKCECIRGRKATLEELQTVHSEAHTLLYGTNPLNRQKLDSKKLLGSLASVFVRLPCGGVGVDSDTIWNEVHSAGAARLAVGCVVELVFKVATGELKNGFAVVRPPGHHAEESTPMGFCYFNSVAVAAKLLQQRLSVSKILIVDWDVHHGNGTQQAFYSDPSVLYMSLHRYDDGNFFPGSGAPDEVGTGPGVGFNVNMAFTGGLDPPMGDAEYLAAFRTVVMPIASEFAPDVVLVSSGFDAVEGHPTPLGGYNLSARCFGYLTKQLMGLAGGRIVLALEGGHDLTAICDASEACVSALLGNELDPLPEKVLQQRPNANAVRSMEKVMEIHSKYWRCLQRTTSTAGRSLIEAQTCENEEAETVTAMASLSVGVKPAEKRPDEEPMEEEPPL
Description: as §1

PI3Kδ = PI3Kδ (Homo sapiens, UniProt O00329); assay: Selectivity profile, single dose 0.5 µM, PI3Kδ; assay type: biochemical; conditions: remaining enzyme activity; single‐dose duplicate mode at 0.5 μM; read-out: Enzyme % activity (relative to DMSO controls) at 0.5 µM, PI3Kδ
PI3Kδ, sequence (O00329 whole entry): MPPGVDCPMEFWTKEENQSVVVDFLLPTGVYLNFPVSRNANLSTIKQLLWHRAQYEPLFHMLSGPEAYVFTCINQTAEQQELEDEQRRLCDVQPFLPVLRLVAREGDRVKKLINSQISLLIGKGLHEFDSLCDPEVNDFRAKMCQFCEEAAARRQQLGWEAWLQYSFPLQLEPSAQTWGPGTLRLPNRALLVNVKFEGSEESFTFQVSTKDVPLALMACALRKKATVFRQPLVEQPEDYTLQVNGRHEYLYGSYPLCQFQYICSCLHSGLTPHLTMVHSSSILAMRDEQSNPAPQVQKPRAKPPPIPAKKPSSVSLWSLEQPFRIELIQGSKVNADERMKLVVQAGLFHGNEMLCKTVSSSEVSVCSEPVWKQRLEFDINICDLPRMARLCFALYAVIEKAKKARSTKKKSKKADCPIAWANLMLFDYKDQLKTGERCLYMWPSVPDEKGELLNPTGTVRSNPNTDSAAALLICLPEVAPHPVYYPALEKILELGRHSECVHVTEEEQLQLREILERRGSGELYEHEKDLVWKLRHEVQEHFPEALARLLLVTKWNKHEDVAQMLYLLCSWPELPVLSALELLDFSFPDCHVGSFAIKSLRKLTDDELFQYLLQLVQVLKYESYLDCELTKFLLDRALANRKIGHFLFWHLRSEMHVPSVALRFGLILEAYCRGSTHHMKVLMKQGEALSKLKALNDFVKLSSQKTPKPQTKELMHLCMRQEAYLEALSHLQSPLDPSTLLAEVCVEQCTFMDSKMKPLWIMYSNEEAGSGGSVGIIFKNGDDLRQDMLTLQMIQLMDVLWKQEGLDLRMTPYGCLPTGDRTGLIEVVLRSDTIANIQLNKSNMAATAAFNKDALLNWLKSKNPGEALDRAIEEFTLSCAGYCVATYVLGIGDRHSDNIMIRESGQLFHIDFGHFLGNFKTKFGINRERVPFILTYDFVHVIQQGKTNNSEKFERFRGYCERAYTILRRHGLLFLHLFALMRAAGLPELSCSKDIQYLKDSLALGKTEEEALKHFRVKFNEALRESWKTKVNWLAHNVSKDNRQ
PI3Kδ, sequence (P27986 whole entry partner): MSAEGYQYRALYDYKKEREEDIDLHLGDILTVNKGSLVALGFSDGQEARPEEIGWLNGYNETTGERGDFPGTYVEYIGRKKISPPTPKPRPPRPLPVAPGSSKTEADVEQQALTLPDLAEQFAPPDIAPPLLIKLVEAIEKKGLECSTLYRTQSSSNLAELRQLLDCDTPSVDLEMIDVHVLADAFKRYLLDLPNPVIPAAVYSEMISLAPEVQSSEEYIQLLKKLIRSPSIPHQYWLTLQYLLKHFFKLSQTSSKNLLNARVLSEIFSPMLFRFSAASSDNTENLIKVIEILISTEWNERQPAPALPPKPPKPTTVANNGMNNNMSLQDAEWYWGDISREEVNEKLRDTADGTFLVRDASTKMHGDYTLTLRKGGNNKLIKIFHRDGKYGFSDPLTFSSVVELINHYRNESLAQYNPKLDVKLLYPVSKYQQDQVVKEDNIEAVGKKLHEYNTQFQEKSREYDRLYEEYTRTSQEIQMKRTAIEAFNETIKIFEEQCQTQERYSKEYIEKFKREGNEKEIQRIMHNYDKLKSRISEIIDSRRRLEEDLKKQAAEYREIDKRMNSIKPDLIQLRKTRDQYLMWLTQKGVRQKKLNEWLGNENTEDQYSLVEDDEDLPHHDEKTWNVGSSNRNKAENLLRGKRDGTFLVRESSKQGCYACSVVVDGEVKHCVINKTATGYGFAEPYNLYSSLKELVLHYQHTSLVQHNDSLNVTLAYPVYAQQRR
Description: as §1

[1] = tested on: PI3K pathway (phosphorylation of AKT); assay: Western blot, phospho-AKT in treated cells; assay type: cell-based; conditions: LY2, JIMT1, MDA‐MB‐231 cells, 24 h; seen at 10 µM
Description: FIGURE 4 Cell‐based evaluation of compounds 5a– 5f. Dose‐dependent effects of compound treatment (5a‐5f) on breast cancer cell viability across JIMT1 (A), MDA‐MB‐231 (B), and LY2 (C). Cell‐based evaluation of HDAC and PI3K inhibition by compounds 5b and 5f by Western blot. JIMT1 cells were treated for 24 h with compounds 5b (D) and 5f (E) at the concentrations of 1, 3, and 10 µM or with vehicle control (0.1% DMSO). Protein expression levels were analyzed by western blot using antibodies against acetylated α‐tubulin, acetyl H3 (H3K9Ac and H3K14Ac), phospho‐AKT (p‐AKT), and total AKT. GAPDH served as a loading control.
To investigate if 5b and 5f were acting as multitarget inhibitors, we evaluated the modulation of HDAC6 and PI3K signaling pathways by western blot analysis (Figure 4D,E). […]
Total protein samples were extracted from treated cells using a lysis buffer containing 0.1% IGEPAL CA‐630 (I8896, Merck), 0.5% deoxycholic acid (D2510, Merck), and 0.1% SDS (L3771, Merck), freshly supplemented with protease and phosphatase inhibitor cocktail (78442, Thermo Fisher Scientific). Protein concentrations were quantified using the Pierce BCA Protein Assay Kit (23227, Thermo Fisher Scientific) according to the manufacturer's instructions. […] Chemiluminescence signals were detected using the Amersham Imager 680 Imaging System. […]

HDAC3, sequence (O15379 whole entry, canonical isoform): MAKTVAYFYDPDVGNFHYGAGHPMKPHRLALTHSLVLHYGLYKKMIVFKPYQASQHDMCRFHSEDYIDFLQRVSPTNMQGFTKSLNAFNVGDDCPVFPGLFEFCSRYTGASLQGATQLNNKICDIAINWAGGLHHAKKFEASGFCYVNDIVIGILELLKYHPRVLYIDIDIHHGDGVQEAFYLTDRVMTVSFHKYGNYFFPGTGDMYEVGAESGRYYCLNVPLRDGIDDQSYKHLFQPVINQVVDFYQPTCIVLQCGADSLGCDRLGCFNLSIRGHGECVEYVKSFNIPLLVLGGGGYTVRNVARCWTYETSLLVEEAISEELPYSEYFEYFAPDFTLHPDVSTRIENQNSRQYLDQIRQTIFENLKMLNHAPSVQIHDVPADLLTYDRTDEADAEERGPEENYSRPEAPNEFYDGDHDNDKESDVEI
HDAC3, sequence (Q9Y618 395-489 partner limits assumed): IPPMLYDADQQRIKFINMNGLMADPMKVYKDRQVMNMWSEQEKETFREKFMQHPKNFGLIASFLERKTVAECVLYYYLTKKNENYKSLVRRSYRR

Row | remaining activity at 0.5 µM (HDAC3) | remaining activity at 0.5 µM (HDAC4) | remaining activity at 0.5 µM (PI3Kδ) | SMILES | Phosphorylation of AKT, western blot [1]
1 | 26.6% | 98.4% | 59.2% | COc1ccc(-c2nc(NCc3ccc(C(=O)NO)cc3)nc(N3CCOCC3)n2)cn1 [Compound 5f, N‐Hydroxy‐4‐(((4‐(6‐Methoxypyridin‐3‐yl)‐6‐Morpholino‐1,3,5‐Triazin‐2‐yl)Amino)Methyl)Benzamide] | decreased phosphorylation of AKT
2 | 22.6% | 89% | 8.24% | O=C(NO)c1ccc(CNc2nc(-c3cccc(O)c3)nc(N3CCOCC3)n2)cc1 [Compound 5b, N‐Hydroxy‐4‐(((4‐(3‐Hydroxyphenyl)‐6‐Morpholino‐1,3,5‐Triazin‐2‐yl)Amino)Methyl)Benzamide] | decreased phosphorylation of AKT
